In article PMC10787763, “Two-substrate enzyme engineering using small libraries that combine the substrate preferences from two different variant lineages” (Scientific Reports, 2024) one finds Km data, which are given here for 1 compound.

This test has as its target T1, E. coli transketolase (TK), 6M variant scaffold (Escherichia coli, UniProt P27302, H100L/H192P/A282P/I365L/D469T/G506A/R520Q, form not given).
T1 construct: gene tktA; full-length, C-terminal His6 tag, expressed in E. coli from lab plasmid (pQR791 / pQR729), Ni-NTA purified; holo-TK with ThDP and Mg2+; non-natural residue by amber suppression in TK-5C
In words: initial-rate kinetics by RP-HPLC, Michaelis-Menten fit. The class given is biochemical. Particulars: TK-5C; residue 385 is non-natural p-cyano-L-phenylalanine; acceptor substrate varied, 50 mM pyruvate as donor, 2.4 mM ThDP, 9 mM MgCl2, 50 mM Tris-HCl pH 7.0, 21 °C; error is SEM. An excerpt:
initial-rate kinetics by RP-HPLC, Michaelis-Menten fit on E. coli transketolase (TK), 6M variant scaffold

Usually Km stands for the substrate concentration at which the rate is half of its maximum.

Each structure is given as a SMILES string.

T1 sequence (P27302 whole entry H100L/H192P/A282P/I365L/D469T/G506A/R520Q, form open): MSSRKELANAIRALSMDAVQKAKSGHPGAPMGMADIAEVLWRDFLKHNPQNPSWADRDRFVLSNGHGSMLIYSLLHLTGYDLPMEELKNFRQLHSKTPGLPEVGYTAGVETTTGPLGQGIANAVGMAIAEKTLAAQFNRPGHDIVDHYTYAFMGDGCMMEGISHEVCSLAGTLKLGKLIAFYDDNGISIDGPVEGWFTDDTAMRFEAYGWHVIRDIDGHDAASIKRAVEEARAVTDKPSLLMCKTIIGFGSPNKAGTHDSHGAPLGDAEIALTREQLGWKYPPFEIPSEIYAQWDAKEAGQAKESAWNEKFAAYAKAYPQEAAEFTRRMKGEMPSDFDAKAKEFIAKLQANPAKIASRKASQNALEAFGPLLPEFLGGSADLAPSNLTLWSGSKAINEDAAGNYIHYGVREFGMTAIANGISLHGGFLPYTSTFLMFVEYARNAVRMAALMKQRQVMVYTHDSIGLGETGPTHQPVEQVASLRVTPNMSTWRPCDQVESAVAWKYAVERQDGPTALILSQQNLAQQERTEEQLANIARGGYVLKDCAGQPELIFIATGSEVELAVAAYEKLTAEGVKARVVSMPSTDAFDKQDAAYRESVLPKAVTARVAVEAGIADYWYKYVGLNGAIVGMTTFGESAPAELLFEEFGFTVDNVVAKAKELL

On to `O=Cc1cccc(C(=O)O)c1` [3-FBA, 3-formylbenzoic acid], for which the Km came to 95 mM.
